Measured values reported in US20080214557A1, “METHOD FOR PREPARATION OF PHARMACEUTICAL COMPOSITION HAVING IMPROVED DISINTEGRATABILITY AND PHARMACEUTICAL COMPOSITION MANUFACTURED BY SAME METHOD” (Eisai R&D Management Co., Ltd., priority 2005, published 2008).

Assay: pH of 2.5 wt % aqueous solutions of the salts in purified water
Assay type: physicochemical
Conditions: 2.5 wt % aqueous solution in purified water

Compound | pH of 2.5% salt solution
[Ca+2].[Cl-].[Cl-] [CaCl2(anhydrous), anhydrous calcium chloride] | 8.40
NCC(=O)O [Glycine, glycine] | 6.12
[Cl-].[K+] [KCl, potassium chloride] | 6.05
Cl.N [NH4Cl, ammonium chloride] | 4.97
O=C([O-])[O-].[Na+].[Na+] [Na2CO3(anhydrous), anhydrous sodium carbonate] | 11.31
O=P([O-])([O-])O.[Na+].[Na+] [Na2HPO4(anhydrous), anhydrous disodium hydrogen phosphate] | 8.90
[Cl-].[Na+] [NaCl, sodium chloride] | 5.69
O=C([O-])O.[Na+] [NaHCO3(anhydrous), anhydrous sodium bicarbonate] | 8.09
anhydrous sodium acetate [CH3CO2Na(anhydrous)] | 8.25
